The text below walks through data of patent publication US10519148B2, “Acrylic acid derivative, preparation method and use in medicine thereof” (Zhejiang Hisun Pharmaceutical Co., Ltd., priority 2015, dated 2019).

Usually IC50 stands for the concentration needed to halve the response being measured.

Assay [1] has as its target T1, recombinant human estrogen receptor ERα ligand binding domain (Homo sapiens, UniProt P03372).
T1 construct: purchased Invitrogen PV4543
T1 sequence (P03372 311-547 limits assumed): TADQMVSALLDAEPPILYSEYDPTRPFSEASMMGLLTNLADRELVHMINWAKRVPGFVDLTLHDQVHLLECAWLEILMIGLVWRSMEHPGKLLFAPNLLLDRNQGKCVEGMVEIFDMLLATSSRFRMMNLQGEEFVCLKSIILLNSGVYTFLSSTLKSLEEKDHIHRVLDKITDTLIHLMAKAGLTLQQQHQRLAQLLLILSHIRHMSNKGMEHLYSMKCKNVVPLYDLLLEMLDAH
The assay is described as follows: LanthaScreen TR-FRET competition binding assay with estrogen receptor ERα ligand binding domain. Particulars: TR-FRET competition with Fluormone ES2, ERα-LBD (GST); read-out: IC50 (nM) ER Reporter. An excerpt: The present invention utilizes the Lantha Screen™ Time-resolved Fluorescence Resonance Energy Transfer (TR-FRET) to assess the ability of the compounds to bind to the isolated ligand domain of estrogen receptor Era in competition assay. The fluorophore (Fluormone ES2, product code P2645) and the recombinant human estrogen receptor ERα ligand binding domain (product code PV4543) using in the TR-FRET were purchased from Invitrogen. The design principle of this assay is as follows: the estrogen receptor ERα-LBD (GST) and the fluorophore-containing ligand form a receptor/fluorophore complex, followed by the addition of terbium (Tb)-labeled anti-GST antibody (product code PV3551), the indirect labeling of the receptor is achieved by the linkage with the GST on the receptor, and the ability of competitive coordination between the test compound and the fluorescent ligand with the receptor is evaluated by detecting the attenuation of the TR-FRET effect between the chromophore (Tb-anti-GST antibody) on the fluorescent label ERα and the fluorescent ligand (Fluormone ES2). We used the following sample preparation and test methods for the test of the synthesized compounds. The instrument we used is Beckman Coulter BioPAPTR FRD microfluidic workstation.
(1) Acoustic dispense 120 nL of the test compound into a black low volume 384 well assay plates;
(2) Preparation of 1×ERα-LBD/Tb-anti-GST antibody complex in ES2 buffer and incubation therein for 20 minutes;
(3) The 1×ES2 was further added to the above ERα-LBD/Tb-anti-GST antibody complex solution before the test;
(4) 12 μL of the ERα-LBD/Tb-anti-GST antibody complex solution prepared in step 3 was added to the wells of the assay plate;
(5) The plates were shielded from light and incubated at room temperature for one hour; (6) At 337 nm excitation light, the emission light at 490 nm and 520 nm was detected by BMG Phera STAR.
The test compounds of a series of concentrations (10 mM, 0.1 mM, 1 μM and 10 nM) prepared on a microplate were transferred to the analytical plate using Labcyte Echo 550. 120 nL of DMSO solution for each test compound was added to each well of the assay plate and tested at 12 different concentrations (100, 29.17, 10.42, 2.083, 1, 0.292, 0.104, 0.02083, 0.01, 0.0029, 0.00104, 0.001 μM). The TR-FRET primitive fluorescence data was used to obtain the fitting curve software such as Origin or Genedata. Half maximal inhibitory concentration IC50 of each compound was used to characterize the competitive binding ability of the test compound with the estrogen receptor ERα. IC50 represents the concentration of the test compound that was calculated when the coordination of the tracer fluorophore (ES2) with the estrogen receptor was reduced by 50%, and the IC50 was determined as shown in Table 3.

In a further assay the target is T2, ERα (Homo sapiens, UniProt P03372).
T2 construct: host or cells: MCF-7
T2 sequence (P03372 1-595): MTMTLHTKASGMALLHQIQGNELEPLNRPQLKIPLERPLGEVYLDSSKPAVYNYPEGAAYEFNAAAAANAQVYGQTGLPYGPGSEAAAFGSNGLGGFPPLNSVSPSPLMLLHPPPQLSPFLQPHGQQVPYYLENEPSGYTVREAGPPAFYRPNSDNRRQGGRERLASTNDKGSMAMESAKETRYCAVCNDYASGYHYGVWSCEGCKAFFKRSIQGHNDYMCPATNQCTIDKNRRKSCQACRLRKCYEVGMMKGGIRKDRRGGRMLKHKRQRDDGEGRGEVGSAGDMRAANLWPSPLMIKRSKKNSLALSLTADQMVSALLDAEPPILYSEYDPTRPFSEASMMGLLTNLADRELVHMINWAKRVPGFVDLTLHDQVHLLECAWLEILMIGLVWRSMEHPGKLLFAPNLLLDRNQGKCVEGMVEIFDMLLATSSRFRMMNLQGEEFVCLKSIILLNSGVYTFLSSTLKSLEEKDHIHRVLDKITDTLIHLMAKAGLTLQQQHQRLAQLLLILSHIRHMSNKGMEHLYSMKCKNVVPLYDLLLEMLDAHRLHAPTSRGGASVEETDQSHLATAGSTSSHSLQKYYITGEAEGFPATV
The assay is described as follows: ERα down-regulation immunofluorescence assay in MCF-7 cells. Format: cell-based. Particulars: immunofluorescence of ERα level, read-out: IC50 (nM) ERα down-degradation. The procedure:
The down-regulation of the preferred compounds of the present invention on the protein level of ERα is evaluated by immunofluorescence assay using human breast cancer cell line MCF-7. MCF-7 cells used in the experiment were revived directly from frozen cells (about 5×10^6). The MCF-7 frozen cell line (Sigma D5921) purchased from Sigma was stored in DMEM medium containing 2 mM […]. 5% (v/v) Charcoal/Dextran-treated bovine serum […] were added to the revived MCF-7 cells and the cell concentration was determined using Coulter Counter.
The cells used for the test were diluted to 3.75×10^4 cells/mL with culture medium and 40 μL/well of the above cell suspension was transferred to 384-well black transparent bottom plates and incubated overnight at 37° C., 5% CO2. 10 mM compound stock solutions were diluted to a series of test concentrations (10 mM, 0.1 mM, 1 μM, 0.01 μM etc.) and dispensed into cell plates. 20 μL of 11.1% (v/v) aqueous formaldehyde solution (phosphate buffered saline) was added to each of the different concentrations of the test compounds and MCF-7 cell culture solution (40 μL), and the final concentration of formaldehyde in the solution was 3.7% (v/v). Cells were fixed at room temperature for 20 minutes, washed twice with 250 μL of PBS/Proclin, and then 40 μL of PBS/Proclin was added and refrigerated at 4° C. The immunostaining of the protein was performed using the automated AutoElisa kit. The PBS/Proclin solution was aspirated from each plate well and then 40 μL of PBS containing 0.5% Tween 20 (v/v) was added for cell permeation. After one hour, the plate was washed with 250 μL of PBS/0.05% Tween 20/Proclin for three times, and 20 μL of ERα rabbit monoclonal antibody (Thermofisher) in PBS/Tween™ 20/3% (w/v) BSA solution (1:1000) was added. The plates were incubated overnight at 4° C., washed three times with 250 μL of PBS/Tween™ 20/Proclin, and then 20 μL of goat anti-rabbit IgG AlexaFluor 594 or goat anti-rabbit IgG AlexaFluor 488 antibody (containing Hoechst stain (1:5000) in PBS/Tween™ 20/3% (w/v) BSA solution was added, and the system was incubated at room temperature for one hour. After the plates were washed three times with 250 μL of PBS/0.05% (v/v) Tween™ 20/Proclin, 20 μL of PBS was added and the paltes were kept in dark place at 4° C. The level of estrogen receptor ERα in MCF-7 cells was calculated through Cellomics Arrayscan detection of fluorescence emission intensity at two emission wave bands at 594 nm (24-hour time point) and 488 nm (5-hour time point). The average fluorescence emission intensity of each cell is positively correlated with the ERα receptor level of the cell. The primitive fluorescence data was used to obtain the fitting curve by software such as Origin or Genedata. Half maximal inhibitory concentration IC50 was used to characterize the down-regulation of estrogen receptor ERα by the test compounds, which is the concentration of the test compound when the fluorescence emission intensity is reduced to 50% of the average maximum fluorescence intensity.

Take `C[C@@H]1Cc2c([nH]c3ccccc23)[C@@H](c2c(F)cc(/C=C/C(=O)O)cc2F)N1CC1CC1` [Example 2, (E)-3-(4-((1R,3R)-2-(cyclopropylmethyl)-3-methyl-2,3,4,9-tetrahydro-1H-pyrido[3,4-b]indol-1-yl)-3,5-difluorophenyl)acrylic acid]: the concentration for half-maximal inhibition (IC50) in assay [1] lay within 0.1 to 10 nM. For the same molecule, the DC50 on ERα was 0.1 to 10 nM.

Take `C[C@@H]1Cc2c([nH]c3ccccc23)[C@@H](c2c(F)cc(/C=C/C(=O)O)cc2F)N1CC1CCCC1` [Example 3, (E)-3-(4-((1R,3R)-2-(cyclopentylmethyl)-3-methyl-2,3,4,9-tetrahydro-1H-pyrido[3,4-b]indol-1-yl)-3,5-difluorophenyl)acrylic acid]: in assay [1], the half-maximal inhibitory concentration (IC50) lay in the range of 10 to 250 nM. The DC50 at ERα lay in the range of 10 to 250 nM.

Turning to `C[C@@H]1Cc2c([nH]c3ccccc23)[C@@H](c2c(F)cc(/C=C/C(=O)O)cc2F)N1CC1(F)CCCCC1` [Example 6, (E)-3-(3,5-difluoro-4-((1R,3R)-2-((1-fluorocyclohexyl)methyl)-3-methyl-2,3,4,9-tetrahydro-1H-pyrido[3,4-b]indol-1-yl)phenyl)acrylic acid], the IC50 in assay [1] lay in the range of 10 to 250 nM. For the same molecule, the DC50 at ERα is 10 to 250 nM.

Consider `C[C@@H]1Cc2c([nH]c3ccccc23)[C@@H](c2c(F)cc(/C=C/C(=O)O)cc2F)N1CC1COC1` [Example 11, (E)-3-(3,5-difluoro-4-((1R,3R)-3-methyl-2-(oxetane-3-ylmethyl)-2,3,4,9-tetrahydro-1H-pyrido[3,4-b]indol-1-yl)phenyl)acrylic acid], for which the IC50 in assay [1] was 10 to 250 nM. For the same molecule, the DC50 on ERα fell in the range of 10 to 250 nM.

Turning to `C[C@H]1Cc2c([nH]c3cccc(F)c23)[C@H](c2c(F)cc(/C=C/C(=O)O)cc2F)N1CC1(F)CC1` [Example 13, (E)-3-(3,5-difluoro-4-((1S,3S)-5-fluoro-2-((1-fluorocyclopropyl)methyl)-3-methyl-2,3,4,9-tetrahydro-1H-pyrido[3,4-b]indol-1-yl)phenyl)acrylic acid], the IC50 in assay [1] lay in the range of 250 to 1000 nM. Further, on ERα, the DC50 lay in the range of 250 to 1000 nM.
